# Values quoted from earlier work as cited in patent publication US20050215535A1, “Sequential SPRM/progestin treatment” (priority 2004, published 2005).
# Tests used:
# progesterone receptor = target: T1, progesterone receptor (Oryctolagus cuniculus, UniProt P06186); conditions: rabbit model; for McPhail score: scale of 0-4
# T1 construct: SPRMs score lower than progesterone in the McPhail bioassay in rabbits; from tissue; host or cells: living rabbit (in vivo; the endometrium as read-out tissue is own knowledge of the McPhail test)
# T1 sequence (P06186 1-930): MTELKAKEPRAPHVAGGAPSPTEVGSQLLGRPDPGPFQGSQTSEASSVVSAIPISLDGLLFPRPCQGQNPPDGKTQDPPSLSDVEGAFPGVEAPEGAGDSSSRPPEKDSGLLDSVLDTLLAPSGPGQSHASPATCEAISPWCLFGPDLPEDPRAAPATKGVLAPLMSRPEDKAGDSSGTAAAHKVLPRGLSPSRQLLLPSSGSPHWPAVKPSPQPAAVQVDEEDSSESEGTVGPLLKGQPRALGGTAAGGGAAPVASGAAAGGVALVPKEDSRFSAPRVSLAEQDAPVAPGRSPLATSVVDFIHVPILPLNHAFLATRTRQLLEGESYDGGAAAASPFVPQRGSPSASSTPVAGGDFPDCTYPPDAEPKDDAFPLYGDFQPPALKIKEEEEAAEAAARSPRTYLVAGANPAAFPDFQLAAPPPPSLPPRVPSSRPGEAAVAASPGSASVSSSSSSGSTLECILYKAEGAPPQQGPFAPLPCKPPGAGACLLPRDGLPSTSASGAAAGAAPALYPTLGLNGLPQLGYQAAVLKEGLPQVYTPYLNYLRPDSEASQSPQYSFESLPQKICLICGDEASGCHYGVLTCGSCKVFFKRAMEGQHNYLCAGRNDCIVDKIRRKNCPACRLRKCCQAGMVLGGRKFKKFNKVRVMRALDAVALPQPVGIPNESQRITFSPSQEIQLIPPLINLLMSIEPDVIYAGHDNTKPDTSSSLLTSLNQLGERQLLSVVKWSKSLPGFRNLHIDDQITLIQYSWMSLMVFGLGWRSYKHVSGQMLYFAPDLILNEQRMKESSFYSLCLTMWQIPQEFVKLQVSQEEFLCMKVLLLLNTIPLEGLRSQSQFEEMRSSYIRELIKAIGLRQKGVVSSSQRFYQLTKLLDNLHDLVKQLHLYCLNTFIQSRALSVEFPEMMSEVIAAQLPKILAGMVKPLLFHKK
SMILES,agonist activity in the McPhail test (progesterone receptor),time to withdrawal bleeding (start of spontaneous menstrual cycle) after stopping the SPRM treatment (premenopausal women; all subjects),resumption of menstruation after cessation of treatment (premenopausal women; majority of subjects),McPhail score (progesterone receptor)
CN(C)c1ccc([C@H]2C[C@]3(C)[C@@H](CC[C@]3(O)CCCO)[C@@H]3CCC4=CC(=O)CCC4=C32)cc1 [onapristone],do not show any agonist activity,,,
COC[C@]1(OC)CC[C@H]2[C@@H]3CCC4=CC(=O)CCC4=C3[C@@H](c3ccc(/C=N/O)cc3)C[C@@]21C [J867],,up to 90 days,≤ 30 days,
"CC#C[C@]1(O)CC[C@H]2[C@@H]3CCC4=CC(=O)CCC4=C3[C@@H](c3ccc(N(C)C)cc3)C[C@@]21C [RU486, mifepristone]",do not show any agonist activity,,,less than 0.5
CC(=O)[C@H]1CC[C@H]2[C@@H]3CCC4=CC(=O)CC[C@]4(C)[C@H]3CC[C@]12C [progesterone],,,,4
